Data reported in patent US12692547B2, “Methods of treating cancers containing fusion genes” (UNIVERSITY OF PITTSBURGH—OF THE COMMONWEALTH SYSTEM OF …, priority 2016, dated 2026).

Key:
GST-MAN2A1-FER = biological target: T1, GST-MAN2A1-FER (Homo sapiens, UniProt P16591); test: Phosphorylation of HisTAG-EGFR aa1-650 by GST-MAN2A1-FER with excessive peptide; format: biochemical; conditions: excessive amount of peptide; HisTAG-EGFR aa1-650 substrate
T1 construct: while leaving the tyrosine kinase domain in FER largely intact; MAN2A1 N-terminal 703 amino acids (fusion partner, itself N-terminally GST-tagged); made in house; host or cells: Escherichia coli BL21; the other entry of the earlier key: MAN2A1 (Q16706, Alpha-mannosidase 2)
T1 sequence (P16591 with tags, fused parts or gaps): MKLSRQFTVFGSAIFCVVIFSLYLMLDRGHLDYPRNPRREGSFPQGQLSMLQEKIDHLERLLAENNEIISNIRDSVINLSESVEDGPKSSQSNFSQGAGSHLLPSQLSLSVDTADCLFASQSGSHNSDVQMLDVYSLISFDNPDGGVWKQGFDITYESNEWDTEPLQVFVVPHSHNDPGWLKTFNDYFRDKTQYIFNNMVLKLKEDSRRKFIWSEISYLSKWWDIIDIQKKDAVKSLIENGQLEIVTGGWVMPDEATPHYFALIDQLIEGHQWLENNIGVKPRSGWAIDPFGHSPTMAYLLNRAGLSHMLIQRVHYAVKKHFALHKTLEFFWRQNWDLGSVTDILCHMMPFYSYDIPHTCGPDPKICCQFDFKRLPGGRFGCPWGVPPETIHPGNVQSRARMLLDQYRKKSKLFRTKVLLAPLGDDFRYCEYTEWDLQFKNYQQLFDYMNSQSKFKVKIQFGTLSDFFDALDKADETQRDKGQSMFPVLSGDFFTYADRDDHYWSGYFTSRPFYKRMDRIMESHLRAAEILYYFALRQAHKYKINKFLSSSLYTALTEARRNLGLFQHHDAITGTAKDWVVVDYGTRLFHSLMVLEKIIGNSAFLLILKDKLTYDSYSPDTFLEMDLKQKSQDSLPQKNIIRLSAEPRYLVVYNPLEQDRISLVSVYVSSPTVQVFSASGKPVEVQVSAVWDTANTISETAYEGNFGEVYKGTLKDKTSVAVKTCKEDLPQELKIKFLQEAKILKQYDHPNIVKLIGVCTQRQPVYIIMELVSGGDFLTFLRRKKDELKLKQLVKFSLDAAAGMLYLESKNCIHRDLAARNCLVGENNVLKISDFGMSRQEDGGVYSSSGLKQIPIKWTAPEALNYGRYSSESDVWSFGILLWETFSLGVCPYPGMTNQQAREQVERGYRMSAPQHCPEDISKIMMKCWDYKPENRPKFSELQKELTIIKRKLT

[1] = tested on: PMF cells (PC3 with inducible MAN2A1-FER-FLAG); test: Cell death by Annexin V and propidium iodide staining, PMF cells; format: cell-based; conditions: Homo sapiens
From the text: (§1) FIG. 18. […] Factions of cell death were then quantified by Annexin V and propridium iodide staining. […] Factions of cell death were then quantified by Annexin V and propridium iodide staining. […] Factions of cell death were then quantified by Annexin V and propridium iodide staining.
(§2) Since the kinase activity of MAN2A1-FER and EGFR activation are the drivers of MAN2A1-FER oncogenic activity, it is of interest to examine whether inhibition of the kinase activity of MAN2A1-FER or EGFR interrupts the oncogenic activity of MAN2A1-FER, and thus the growth of the tumors.

[2] = tested on: GMF cells (A-172 with inducible MAN2A1-FER-FLAG); test: Cell death by Annexin V and propidium iodide staining, GMF cells; format: cell-based; conditions: Homo sapiens, A 172, GMF cells
From the text: as §1, §2

HUH7 cells = test: Cell death by Annexin V and propidium iodide staining, HUH7 cells and MAN2A1-FER knockout counterpart; format: cell-based; conditions: Homo sapiens
From the text: as §1, §2

[3] = tested on: PC3, A-172 or HUH7 with or without MAN2A1-FER; test: Killing of cancer cell lines with or without MAN2A1-FER (summary over cell lines); format: cell-based; conditions: Homo sapiens, read-out: IC50 values (50% inhibitory concentrations)
From the text: as §1, §2

PC3 cells xenograft = test: Kinase inhibitor treatment of SCID mice xenografted with PC3 (PMF) cells; format: in vivo, mouse; conditions: for reduction of final tumor size: PC3, MAN2A1-FER present, vs DMSO controls, crizotinib 12.5 mg/kg, canertinib 10 mg/kg, 3 times a week, peritoneal injection
From the text: (§3) Treatment of Severe Combined Immunodeficient Mice Xenografted With Cancer Cells. For kinase inhibitor treatment experiments, PMF, GMF, HUH7, and HUH7/ko cells (2×10^7 cells) were xenografted into the subcutaneous region of SCID mice. […] Serial sections of formalin-fixed, paraffin-embedded lung, brain, liver, kidney, vertebra, and lymph node specimens were collected, stained with H&E, and examined microscopically.

A-172 cells xenograft = test: Kinase inhibitor treatment of SCID mice xenografted with A-172 (GMF) cells; format: in vivo, mouse; conditions: for reduction of final tumor size: A-172, MAN2A1-FER present, vs DMSO controls, crizotinib 12.5 mg/kg, canertinib 10 mg/kg, 3 times a week, peritoneal injection
From the text: as §3

HUH7 cells xenograft = test: Kinase inhibitor treatment of SCID mice xenografted with HUH7 or HUH7/ko cells; format: in vivo, mouse; conditions: for reduction of final tumor size: HUH7, MAN2A1-FER present, vs DMSO controls, crizotinib 12.5 mg/kg, canertinib 10 mg/kg, 3 times a week, peritoneal injection
From the text: as §3

[4] = tested on: PC3, A-172 and HUH7 xenografted tumors; test: Metastasis and mortality of treated SCID mice, all tumors pooled; format: in vivo, mouse; conditions: for mortality of xenografted mice: tumors positive for MAN2A1-FER
From the text: as §3

[5] = Huh-7, HUH7 KO (MAN2A1-FER knockout)
[6] = Huh-7, HUH7 WT (MAN2A1-FER positive)
[7] = A-172, MAN2A1-FER not present, same regimen
[8] = MAN2A1-FER negative cells, control 1/18
[9] = all tumors (PC3, A-172, HUH7), MAN2A1-FER present, controls 11/18

| Molecule | blocking of phosphorylation of EGFR N-terminus by GST-MAN2A1-FER (GST-MAN2A1-FER) | IC50 ([1]; Tet+ (MAN2A1-FER-FLAG induced)) [nM] | IC50 ([1]; Tet− (no MAN2A1-FER-FLAG)) [nM] | IC50 ([2]; Tet+ (MAN2A1-FER-FLAG induced)) [nM] | IC50 ([2]; Tet− (no MAN2A1-FER-FLAG)) [nM] | IC50 (HUH7 cells; [5]) [nM] | IC50 (HUH7 cells; [6]) [nM] | IC50 [3] [nM] | reduction of tumor size (PC3 cells xenograft; PC3, MAN2A1-FER not present, same regimen) [%] | reduction of final tumor size (PC3 cells xenograft) [%] | reduction of tumor size (A-172 cells xenograft; [7]) [%] | reduction of final tumor size (A-172 cells xenograft) [%] | reduction of tumor size (HUH7 cells xenograft; HUH7, MAN2A1-FER not present (knockout), same regimen) [%] | reduction of final tumor size (HUH7 cells xenograft) [%] | metastasis (mice with metastasis / mice) [4, 8] | metastasis (mice with metastasis / mice) [4, 9] | mortality of xenografted mice [4] | increase of tumor size (A-172 cells xenograft; [7]) [%] |
| --- | --- | --- | --- | --- | --- | --- | --- | --- | --- | --- | --- | --- | --- | --- | --- | --- | --- | --- |
| FLKTIQEVAGYVLIALNTVER [peptide 3] | partially blocked |  |  |  |  |  |  |  |  |  |  |  |  |  |  |  |  |  |
| C=CC(=O)Nc1cc2c(Nc3ccc(F)c(Cl)c3)ncnc2cc1OCCCN1CCOCC1 [canertinib] |  | 10.9 | 25.1 | 10.7 | 26.5 | 30.3 | 14.7 | < 15 | 32.0 | 85.0 | 19.2 | 73.2 | 40.2 | 81.7 | 2/18 | 0/18 | completely eliminated the mortality |  |
| C[C@@H](Oc1cc(-c2cnn(C3CCNCC3)c2)cnc1N)c1c(Cl)ccc(F)c1Cl [crizotinib] |  | 20.8 | 43.4 | 33.1 | 64.5 | 52.9 | 28.9 |  |  | 78.6 |  | 67.6 |  | 80.7 | 2/18 | 0/18 | completely eliminated the mortality | 4 |
